Several values for one entry are separate records, joined by “and”; a condition that tells them apart may be missing. Equal values may be shown once.

In experiment [1] the test system is CRF-OE mice. Kind of experiment: Repeat sc experiment in female CRF-OE mice (4.5 months old): skin pigment and hair growth scores. It counts as in vivo. Also on record: key to Skin pigmentation (Pg) score: 0 = bright pink skin, 10 = black pigmentation of entire region; key to Ventral Abdomen Hair Growth Score (VAb) / Back Hair Growth Score (BK): 0 = no change in hair, 10 = full hair growth in test area. The settings on record: sc 5 μg/mouse x 5 days. As to the method:
Hair growth in CRF-OE mice was assessed using the hair growth scale developed by Vegesna et al. […], 2002) modified to account for phenotypic differences between CRF-OE mice. Scores were made visually as well as using photographs of each mouse at a weekly interval. The degree of alopecia varied between individual CRF-OE mice; thus, the percent difference between the amount of hair present in the test area (described below) before and 4 weeks after treatment was converted to a score of 0-10. A zero score corresponded to a no change in the amount of hair in the test area and a score of 10 corresponded to full hair growth in the entire test area. The scale for monitoring hair growth in CRF-OE mice is more particularly described in Table 2.
Pigmentation of the skin (also referred to as skin color) in the test region was also measured because, in C57BL/6 mice, the skin darkens at the onset of hair growth. A pigmentation score from 0-10 was given to each mouse with a score of 0 corresponding to bright pink skin color/pigment in the entire test region, a score of 1-5 corresponding to increasing intensity of a pale greyish color/pigment of skin in the test region, a score of 6-9 corresponding to increasing but non-confluent darker color/pigment of skin in the test region, and a score of 10 corresponding to black pigmentation of the entire test region. Pigmentation was measured one week after the fifth and final injection because changes (if any) in pigmentation are substantially complete by that time.
Experiments were repeated in female CRF-OE mice (4.5 months old) to confirm the results. Mice were injected with astressin B (5 μg/mouse, 10 mice) or saline (5 mice) for 5 days. Skin pigment and hair growth scores were given as described before. Five astressin B-treated and five saline injected mice were sacrificed for skin tissue collection at seven days post last injection. Additional mice (5) injected with astressin B were sacrificed on day 14. Five littermate wild type (WT) mice were used as normal control. Adrenal gland and abdominal fat weights were also checked at sacrifice of each mouse.
CRF-OE mice (approximately 4 months old) with fully developed alopecia on their backs were injected intraperitoneally (ip) with equal volumes (0.1 ml) of either saline or astressin B (5 μg/mouse/day) for 5 consecutive days. Skin pigment score and hair growth (on the back) score were determined as described in Example 1. In addition, because adult CRF-OE mice also lose ventral abdomen hair, a ventral abdomen (Vab) hair growth score was determined. The area considered for scoring ventral abdomen hair growth was delineated, in the front (anteriorly), by a horizontal line across the tip of the xifoid process (distal sternum), in the rear (posteriorly), by a horizontal line joining the back of the thighs along the anus, and, laterally, by a straight line along the lateral side of the ventral abdomen on left and right sides.

The test system of experiment [2] is ACTH release. The following applies: adrenalectomized rats; similar doses; Rivier et al. 1999; cited from earlier work.
Experiment [3] concerns CRF-OE mice. The experiment can be described thus: Long-term hair growth after sc injection in alopecic female CRF-OE mice (Example 5). It counts as in vivo. The settings on record: two female CRF-OE mice; sc 5 μg/day x 5 days; four months after the final injection. As for the experimental part:
Two female CRF-OE mice, which had fully developed alopecia, received a single daily subcutaneous injection of 5 μg astressin B (in 0.1 ml saline) in the back for five consecutive days. Four (4) months after the final injection, the growth of hair on the backs of both mice was scored 9 out of 10. Similarly, two out of four male CRF-OE mice received intraperitoneal injection of 5 μg astressin B for five consecutive days. Thus, the mice not only grew hair in a previously bald (or balding) region, but such hair was maintained for months without on-going treatment.

Experiment [4] concerns young CRF-OE mice. The experiment can be described thus: Cyclic CRF antagonists, prevention of hair loss in young CRF-OE mice (Example 11). It counts as in vivo. The settings on record: at least four weeks after the final administration. The text has this: Although mice are particularly described, one skilled in the art will appreciate that other laboratory animals and human subjects can be used, and doses adjusted accordingly (for example based on the weight of the subject, or the area to which the peptide is to be applied). Similarly, although particular modes of administration are described, one will appreciate that variations can be made (such as those disclosed herein and those known in the art).
Any method of administration can be used, including injection, transdermal/topical delivery, or combinations thereof.
In one example, therapeutic peptides are administered via injection. For example, mice can be injected subcutaneously or intraperitoneally with at least 0.05 μg, at least 0.5 μg, at least 5 μg, at least 50 μg, or at least 500 μg of one or more therapeutic peptides (for example 0.5-50 μg peptide, 0.5-10 μg peptide, or 5 μg peptide). The peptide can be administered in 0.1 ml sterile saline (or 5% mannitol) once per day for at least 5 consecutive days, such as at least 10 days, at least 30 days, or at least 60 days. […] As a negative control, CRF-OE mice receive saline alone (such as 10-100 μl) or 5 μg astressin 2B in 0.1 ml saline.
In another example, therapeutic peptides are administered topically or transdermally. […]

For experiment [5] the following is noted: similar doses; Rivier et al. 2002; cited from earlier work.
Where [6] appears, read: Before (Week 0), individual mice and Ave., listed as AB.
Setting [7] is: Before (Week 0), individual mice and Ave., listed as AB, mean.
Where [8] appears, read: Week 1, individual mice and Ave., listed as AB.
Where [9] appears, read: Week 1, individual mice and Ave., listed as AB, mean.

On to “(cyclo 30-33)[DPhe12, Nle21,38, Cml27,40, Glu30, Lys33]Ac-h/rCRF9-41 [Astressin B]”, for which the “Skin pigmentation (Pg) score” value was 0 in experiment [1] (Before (Week 0), individual mice and Ave.); 0 in experiment [1] (Before (Week 0), individual mice and Ave., mean); 10 (4×) and 9.5 (3×) and 7 and 9 and 8.5 in experiment [1] (setting [8]); 9.5 and 9.1 in experiment [1] (setting [9]). Besides, the “Back Hair Growth Score (BK)” value in experiment [1] (setting [6]) is 0.5 (4×) and 1 (2×) and 0 (4×); in experiment [1] (setting [7]), 0.7 and 0.1; in experiment [1] (setting [8]) it was 10 (4×) and 9.5 (3×) and 7 and 9 and 8.5; in experiment [1] (setting [9]) it was 9.5 and 9.1; in experiment [1] (Week 2, 14 days follow-up group, individual mice and Ave., listed as AB), 5 and 9.5 and 8 (2×) and 10; in experiment [1] (Week 2, 14 days follow-up group, individual mice and Ave., listed as AB, mean) it was 8.1. Also, the “Ventral Abdomen Hair Growth Score (VAb)” value is 0.5 (4×) and 0.25 (6×) in experiment [1] (setting [6]); 0.35 in experiment [1] (setting [7]); 0.5 (2×) and 0.25 (7×) and 0.75 in experiment [1] (setting [8]); 0.35 in experiment [1] (setting [9]); 0.5 in experiment [1] (Week 2, 14 days follow-up group, individual mice and Ave.); 0.5 in experiment [1] (Week 2, 14 days follow-up group, individual mice and Ave., mean). For the same substance, in experiment [2], the “Duration of inhibition of elevated ACTH release” value was “over 12 hours”. For the same substance, the “Growth of hair on the back, score out of 10” value in experiment [3] was 9.
Take “cyclo(31-34)[DPhe11, His12, CαMeLeu13,39, Nle17, Glu31, Lys34]Ac-Sau(8-40) [Astressin 2B, reference compound]”: the “Hair in the test area” value in experiment [4] is “ultimately develop alopecia in the test area”. Moreover, in experiment [5], the “Duration of delay of gastric emptying” value was “over 6 hours”.

The record behind these values is patent US10166271B2, “Methods for promoting hair growth” (THE REGENTS OF THE UNIVERSITY OF CALIFORNIA, priority 2006, dated 2019).
